{
  "source": "patent US6537522B1",
  "about": "“Neuroprobes for mapping monoamine reuptake sites” (Amersham PLC, priority 1992, dated 2003)",
  "key": {"[1]": {"test_system": "dopamine and serotonin reuptake sites", "settings": "3 μmol/kg IV at 200 min pi, during 100 min after injection", "experimental": "With reference to FIG. 4, five SPECT (single photon emission computer tomography) experiments were performed with four female baboons (Papio anubis, 10-12 kg) under isoflurane anesthesia. […] Serial 1-2 min images were reconstructed assuming uniform attenuation equal to that of water in an ellipse drawn around the brain. Data were decay corrected to time of injection.\nActivity is expressed in arbitrary units known from phantom studies to be linear with radioactive concentrations."}, "[2]": {"test_system": "dopamine and serotonin reuptake sites", "settings": "within 60-120 min", "procedure": "Six SPECT experiments were performed in four female baboons (10 kg Papio anubis) under isoflurane anesthesia. […] Data were decay-corrected to the time of injection."}, "5-HTT (5-HT transporter)": {"molecular_target": "T1, 5-HTT (5-HT transporter) (Rattus norvegicus, UniProt P31652)", "T1 construct": "or frontoparietal cerebral cortex (for 5-HTT and NET); from tissue; host or cells: rat brain frontoparietal cerebral cortex, crude membrane fraction", "T1 sequence (P31652 whole entry)": "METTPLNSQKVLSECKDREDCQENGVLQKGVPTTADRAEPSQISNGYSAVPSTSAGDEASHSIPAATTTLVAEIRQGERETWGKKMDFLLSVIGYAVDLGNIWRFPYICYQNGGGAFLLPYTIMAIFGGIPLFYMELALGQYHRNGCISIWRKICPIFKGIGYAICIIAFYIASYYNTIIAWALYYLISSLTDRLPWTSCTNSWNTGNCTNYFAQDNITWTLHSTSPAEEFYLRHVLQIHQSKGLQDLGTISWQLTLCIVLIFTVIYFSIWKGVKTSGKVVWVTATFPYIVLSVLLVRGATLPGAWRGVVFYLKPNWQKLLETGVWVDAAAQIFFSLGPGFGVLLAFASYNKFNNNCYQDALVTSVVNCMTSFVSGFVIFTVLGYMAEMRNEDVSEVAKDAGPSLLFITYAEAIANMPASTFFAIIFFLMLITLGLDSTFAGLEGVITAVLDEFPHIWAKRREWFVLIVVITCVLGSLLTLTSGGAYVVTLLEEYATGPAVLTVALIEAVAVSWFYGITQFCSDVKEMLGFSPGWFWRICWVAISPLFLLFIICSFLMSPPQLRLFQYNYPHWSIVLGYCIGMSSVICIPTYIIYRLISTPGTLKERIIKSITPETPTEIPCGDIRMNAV", "assay": "5-HTT assay, [3H]paroxetine binding, rat frontoparietal cerebral cortex membranes", "procedure": "(§1) N-phthalimidopropyl-β-CIT (see Example 10) was analyzed as follows. Stock solutions (1 mM) of test agents were made in 95% ethanol/DMSO (1/1, v/v) and stored at −5° C. until used by diluting in a large excess of each assay buffer. Agents are tested at six concentrations in duplicate, with a crude membrane fraction of homogenates of rat brain corpus striatum (for DAT assays) in Tris-citrate buffer (pH 7.4) containing Na^+ ([…]) and Mg^2+ (4 mM) or frontoparietal cerebral cortex (for 5-HTT and NET) in 50 mM Tris-HCl buffer (pH 7.4) containing Na^+ ([…]) and K^+ (5 mM) following methods reported by Neumeyer et al., J. Med. Chem. 37, 1558-1561 (1991), the whole of which is incorporated by reference herein."}, "[3]": {"molecular_target": "T2, NET (norepinephrine transporter) (Rattus norvegicus, UniProt Q63380)", "T2 construct": "or frontoparietal cerebral cortex (for 5-HTT and NET); from tissue; host or cells: rat brain frontoparietal cerebral cortex, crude membrane fraction", "T2 sequence (Q63380 1-617)": "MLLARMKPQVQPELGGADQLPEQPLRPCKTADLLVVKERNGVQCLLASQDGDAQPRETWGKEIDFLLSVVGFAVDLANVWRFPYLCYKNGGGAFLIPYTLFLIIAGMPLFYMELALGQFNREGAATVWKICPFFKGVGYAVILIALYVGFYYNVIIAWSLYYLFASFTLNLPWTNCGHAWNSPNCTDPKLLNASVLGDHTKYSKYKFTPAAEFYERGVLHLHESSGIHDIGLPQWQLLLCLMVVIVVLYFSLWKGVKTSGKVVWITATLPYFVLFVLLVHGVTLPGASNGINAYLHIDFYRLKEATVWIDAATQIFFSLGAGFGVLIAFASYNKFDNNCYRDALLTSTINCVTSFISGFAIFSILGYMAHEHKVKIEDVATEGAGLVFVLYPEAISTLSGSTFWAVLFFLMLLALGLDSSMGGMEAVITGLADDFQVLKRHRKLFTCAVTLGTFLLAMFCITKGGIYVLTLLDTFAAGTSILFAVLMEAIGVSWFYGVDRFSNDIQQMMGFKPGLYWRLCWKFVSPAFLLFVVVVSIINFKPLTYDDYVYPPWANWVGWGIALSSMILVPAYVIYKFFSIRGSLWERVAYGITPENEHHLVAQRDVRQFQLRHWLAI", "assay": "NET assay, [3H]nisoxetine binding, rat frontoparietal cerebral cortex membranes", "procedure": "as §1"}, "dopamine reuptake sites": {"molecular_target": "dopamine reuptake sites (Papio anubis, UniProt A0A096MN61)", "sequence (A0A096MN61 1-620)": "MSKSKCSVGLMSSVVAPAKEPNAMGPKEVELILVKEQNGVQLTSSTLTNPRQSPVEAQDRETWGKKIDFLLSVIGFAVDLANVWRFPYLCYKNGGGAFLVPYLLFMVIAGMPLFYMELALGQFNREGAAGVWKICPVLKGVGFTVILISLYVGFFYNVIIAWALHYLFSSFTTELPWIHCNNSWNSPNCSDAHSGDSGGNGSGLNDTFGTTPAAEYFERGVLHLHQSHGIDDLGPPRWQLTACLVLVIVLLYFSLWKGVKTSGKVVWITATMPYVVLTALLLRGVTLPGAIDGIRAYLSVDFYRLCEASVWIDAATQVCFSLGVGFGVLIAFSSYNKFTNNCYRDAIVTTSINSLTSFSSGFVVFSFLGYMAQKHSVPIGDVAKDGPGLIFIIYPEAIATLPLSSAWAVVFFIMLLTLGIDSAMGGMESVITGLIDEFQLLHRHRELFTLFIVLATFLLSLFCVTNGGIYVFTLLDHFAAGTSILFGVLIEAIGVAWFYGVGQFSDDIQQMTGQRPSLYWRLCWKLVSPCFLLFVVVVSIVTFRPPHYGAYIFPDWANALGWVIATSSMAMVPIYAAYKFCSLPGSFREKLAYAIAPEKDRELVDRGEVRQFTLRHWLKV", "assay": "displacement of [3H]CFT binding in primate striatum tissue homogenates", "set-up": "species or system baboon", "settings": "mean ± SEM (n)", "source_text": "Values represent means±SEM (of n experiments)."}, "serotonin reuptake sites": {"molecular_target": "T3, serotonin reuptake sites (Rattus norvegicus, UniProt P31652)", "T3 construct": "homogenates prepared from rat cortical membranes; from tissue; host or cells: rat cortical membranes", "T3 sequence (P31652 whole entry)": "as the sequence (P31652 whole entry) above", "assay": "displacement of [3H]paroxetine binding in rat cortical membrane homogenates", "settings": "for displacement of [3H]paroxetine Hill slope (nH): mean ± SEM (n)"}, "[4]": {"molecular_target": "T4, DAT (dopamine transporter) (Rattus norvegicus, UniProt P23977)", "T4 construct": "a crude membrane fraction of homogenates of rat brain corpus striatum (for DAT assays); from tissue; host or cells: rat brain corpus striatum, crude membrane fraction", "T4 sequence (P23977 whole entry)": "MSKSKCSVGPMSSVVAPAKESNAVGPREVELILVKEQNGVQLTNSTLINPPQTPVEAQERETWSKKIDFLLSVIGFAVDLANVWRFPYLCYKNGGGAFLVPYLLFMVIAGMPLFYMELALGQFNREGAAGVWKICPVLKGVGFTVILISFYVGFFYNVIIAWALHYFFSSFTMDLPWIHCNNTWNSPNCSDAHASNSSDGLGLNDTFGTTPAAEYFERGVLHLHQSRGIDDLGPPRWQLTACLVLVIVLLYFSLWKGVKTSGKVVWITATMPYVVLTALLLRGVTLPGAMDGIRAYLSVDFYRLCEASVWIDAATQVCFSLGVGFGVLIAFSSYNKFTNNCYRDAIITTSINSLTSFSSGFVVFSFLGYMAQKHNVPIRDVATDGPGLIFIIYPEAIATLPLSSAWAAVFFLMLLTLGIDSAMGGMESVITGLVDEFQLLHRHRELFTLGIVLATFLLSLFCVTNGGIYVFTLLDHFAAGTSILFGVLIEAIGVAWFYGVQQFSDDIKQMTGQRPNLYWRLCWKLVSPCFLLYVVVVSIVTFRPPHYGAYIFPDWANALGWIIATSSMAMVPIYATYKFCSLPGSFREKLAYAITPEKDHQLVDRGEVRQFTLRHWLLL", "assay": "DAT assay, [3H]GBR-12935 binding, rat brain corpus striatum membranes", "settings": "for selectivity: DAT vs 5-HTT / selectivity: DAT vs NET: ratio of Ki values", "procedure": "as §1"}, "[5]": {"test_system": "dopamine and serotonin reuptake sites", "assay": "SPECT regional brain activity after injection of [123I]-β-CIT (six experiments)", "format": "in vivo, baboon (Papio anubis)", "procedure": "The final product was formulated in 6 ml sterile saline containing 5-10% ethanol.\nData were decay-corrected to the time of injection.\nThe highest activities were found in the striatal region and reached peak levels at 179±9 min (n=6) post injection (p.i.) (FIG. 2). Striatal activity was monitored in two animals for an additional 190 and […] post peak values."}, "[6]": {"test_system": "dopamine and serotonin reuptake sites", "assay": "SPECT regional brain activity after i.v. [123I]-β-CIT (five experiments)", "format": "in vivo, baboon (Papio anubis)", "source_text": "Data were decay corrected to time of injection."}, "[7]": {"assay": "whole body scanning, thyroid uptake (in vivo deiodination)", "settings": "indicative of slow in vivo deiodination", "source_text": "The majority of striatal activity was associated with dopamine reuptake sites, and the majority of midbrain activity was associated with serotonin reuptake sites, which is consistent with the densities of these monoamine transporters measured in postmortem primate brains. Brain washout of activity was relatively slow, in part because of the high affinities of β-CIT for the monoamine transporters."}, "[8]": {"settings": "0.4 μmol/kg i.v. at 180 min p.i."}, "[9]": {"settings": "at time of peak striatal uptake, n=6"}},
  "note": "Read-outs that look alike come from different tables or passages of the source.",
  "data": [
    {"smiles": "CNC1CC(c2ccc(Cl)c(Cl)c2)c2ccccc21", "note": "(stereo not drawn) [Lu 19-005, indatraline]", "values": [
      {"measurement": "decrease of striatal [123I]-β-CIT activity", "setting": "[1]", "result": 65, "unit": "%"}
    ]},
    {"smiles": "COC(=O)[C@H]1[C@@H](c2ccc(F)cc2)C[C@@H]2CC[C@H]1N2C", "note": "[compound 2, 2β-carbomethoxy-3β-(4-fluorophenyl)tropane, reference compound]", "values": [
      {"measurement": "displacement of midbrain [123I]-β-CIT levels", "setting": "[2]; [8]", "result": 72, "unit": "%"},
      {"measurement": "displacement of striatal [123I]-β-CIT levels", "setting": "[2]; [8]", "result": 57, "unit": "%"},
      {"measurement": "cumulative displacement of midbrain [123I]-β-CIT levels", "setting": "[2]; 2.0 μmol/kg at 298 min p.i.", "result": 91, "unit": "%"},
      {"measurement": "cumulative displacement of striatal [123I]-β-CIT levels", "setting": "[2]; 2.0 μmol/kg at 298 min p.i.", "result": 83, "unit": "%"},
      {"measurement": "Ki", "setting": "5-HTT (5-HT transporter)", "result": "181 ± 21", "unit": "nM"},
      {"measurement": "Ki", "setting": "[3]", "result": "635 ± 110", "unit": "nM"},
      {"measurement": "displacement of [3H]CFT Hill slope (nH)", "setting": "dopamine reuptake sites", "result": "0.75 ± 0.01 (3)"},
      {"measurement": "IC50", "setting": "serotonin reuptake sites", "result": "479 ± 59", "unit": "nM"},
      {"measurement": "displacement of [3H]paroxetine Hill slope (nH)", "setting": "serotonin reuptake sites; rat cortical membranes", "result": "1.34 ± 0.22 (3)"}
    ]},
    {"smiles": "COC(=O)C1C(c2ccc(I)cc2)CC2CCC1N2C", "note": "(stereo not drawn) [compound 3b, 2-α-Carbomethoxy-3-β-iodophenyltropane]", "values": [
      {"measurement": "displacement of [3H]CFT Hill slope (nH)", "setting": "dopamine reuptake sites", "result": "0.70 ± 0.07 (2)"},
      {"measurement": "displacement of [3H]paroxetine Hill slope (nH)", "setting": "serotonin reuptake sites; rat cortical membranes", "result": "0.73 ± 0.04 (2)"},
      {"measurement": "IC50", "setting": "serotonin reuptake sites; rat cortical membranes, mean ± SEM, read-out: displacement of [3H]paroxetine IC50", "result": "210 ± 86", "unit": "nM"}
    ]},
    {"smiles": "COC(=O)[C@H]1[C@@H](c2ccc(I)cc2)C[C@@H]2CC[C@H]1N2CCCN1C(=O)c2ccccc2C1=O", "note": "[Example 10, N-phthalimidopropyl-β-CIT]", "values": [
      {"measurement": "Ki", "setting": "5-HTT (5-HT transporter); [3H]paroxetine 0.2 nM, rat cerebral cortex, 60 min 20° C., read-out: affinity (Ki) 5-HTT", "result": "0.59 ± 0.07", "unit": "nM"},
      {"measurement": "Ki", "setting": "[4]; [3H]GBR-12935 0.4 nM, rat corpus striatum, 45 min 4° C., read-out: affinity (Ki) DAT", "result": "9.1 ± 1.1", "unit": "nM"},
      {"measurement": "selectivity: DAT vs 5-HTT", "setting": "[4]", "result": 0.065},
      {"measurement": "selectivity: DAT vs NET", "setting": "[4]", "result": 8.10},
      {"measurement": "Ki", "setting": "[3]; [3H]nisoxetine 0.8 nM, rat cerebral cortex, 180 min 4° C., read-out: affinity (Ki) NET", "result": "73.7 ± 11.6", "unit": "nM"}
    ]},
    {"smiles": "COC(=O)[C@H]1[C@@H](c2ccc(I)cc2)C[C@@H]2CC[C@H]1N2C", "note": "[compound 3a, 2β-carbomethoxy-3β-(4-iodophenyl)tropane]", "values": [
      {"measurement": "Ki", "setting": "5-HTT (5-HT transporter)", "result": "0.46 ± 0.06", "unit": "nM"},
      {"measurement": "Ki", "setting": "[4]", "result": "1.4 ± 0.2", "unit": "nM"},
      {"measurement": "selectivity: DAT vs 5-HTT", "setting": "[4]", "result": 0.320},
      {"measurement": "selectivity: DAT vs NET", "setting": "[4]", "result": 2.00},
      {"measurement": "Ki", "setting": "[3]", "result": "2.8 ± 0.4", "unit": "nM"},
      {"measurement": "displacement of [3H]CFT Hill slope (nH)", "setting": "dopamine reuptake sites", "result": "0.79 ± 0.04 (3)"},
      {"measurement": "IC50", "setting": "serotonin reuptake sites", "result": "3.78 ± 0.53", "unit": "nM"},
      {"measurement": "displacement of [3H]paroxetine Hill slope (nH)", "setting": "serotonin reuptake sites; rat cortical membranes", "result": "0.82 ± 0.08 (6)"}
    ]},
    {"smiles": "COC(=O)C1C(c2ccc([123I])cc2)CC2CCC1N2C", "note": "(stereo not drawn) [[^123I]-β-CIT, [^123I]-2-β-Carbomethoxy-3-β-(4-iodophenyl)tropane]", "values": [
      {"measurement": "ratio of regional brain activity, cerebellum (striatum 100%)", "setting": "[5]; [9]", "result": "10.0±1.5", "unit": "%"},
      {"measurement": "ratio of regional brain activity, frontal lobe (striatum 100%)", "setting": "[5]; [9]", "result": "10.3±1.0", "unit": "%"},
      {"measurement": "ratio of regional brain activity, hypothalamus (striatum 100%)", "setting": "[5]; [9]", "result": "38.1±5.2", "unit": "%"},
      {"measurement": "ratio of regional brain activity, occipital lobe (striatum 100%)", "setting": "[5]; [9]", "result": "13.5±0.8", "unit": "%"},
      {"measurement": "ratio of regional brain activity, temporo-parietal lobes (striatum 100%)", "setting": "[5]; [9]", "result": "14.3±2.0", "unit": "%"},
      {"measurement": "washout of midbrain activity t½", "setting": "[5]; midbrain, n=3", "result": "4.9 ± 0.983", "unit": "h"},
      {"measurement": "time of peak midbrain activity post injection", "setting": "[5]; midbrain, n=6", "result": "45 ± 16", "unit": "min"},
      {"measurement": "striatal activity after peak", "setting": "[5]; one animal, remaining 190 min of the experiment", "result": "virtually unchanged"},
      {"measurement": "washout of striatal activity t½", "setting": "[5]; second animal, exponential fit, r=0.92", "result": 27, "unit": "h"},
      {"measurement": "time of peak striatal activity post injection", "setting": "[5]; striatum, n=6, mean ± S.E.M.", "result": "179 ± 9", "unit": "min"},
      {"measurement": "striatal to cerebellar ratio", "setting": "[6]; at time of striatal peak", "result": "9.8±1.6"},
      {"measurement": "decrease of striatal activity from striatal peak to end of experiment", "setting": "[6]; control animal followed an additional 200 min", "result": 0, "unit": "%"},
      {"measurement": "decrease of striatal activity from striatal peak to end of experiment", "setting": "[6]; control animal followed an additional 260 min", "result": 12, "unit": "%"},
      {"measurement": "time of peak midbrain levels pi", "setting": "[6]; midbrain, n=5", "result": "43 ± 5", "unit": "min"},
      {"measurement": "time of peak striatal uptake postinjection", "setting": "[6]; striatal region, mean ± SEM", "result": "154 ± 19", "unit": "min"},
      {"measurement": "thyroid uptake", "setting": "[7]", "result": "low"}
    ]}
  ]
}
